The subject of data set [1] is CLB-BAR. As to the kind of experiment: Cell cycle analysis (DAPI, NucleoCounter NC-3000). The conditions noted are these: 24 h, 75 and 150 nM.
Data set [2] concerns CLB-GE. As to the kind of experiment: Cell cycle analysis (DAPI, NucleoCounter NC-3000). As to conditions: 24 h, 75 and 150 nM.
Another data set relates to CLB-PE. As to the kind of experiment: Apoptosis analysis, cleaved PARP immunoblot. The class given is cell-based. As to conditions: 100 nM, 24 h. How it is done:
(§1) Supplementary Figure 3. Investigation of apoptosis in wild type neuroblastoma cell lines when treated with alectinib. […] Cell lysates were immunoblotted for PARP and ERK (employed as loading control). […] Three independent experiments were performed.
A general note: A western blot detects proteins with antibodies after separation by electrophoresis.

Another data set has as its system IMR-32. As to the kind of experiment: Apoptosis analysis, cleaved PARP immunoblot. The class given is cell-based. As to conditions: IMR-32, 100 nM, 24 h. As to the method: as §1
Data set [3] relates to SK-N-AS (11q-del, K-RasQ61K). As to the kind of experiment: Apoptosis analysis, cleaved PARP immunoblot. Format: cell-based. The conditions noted are these: 100 nM, 24 h.
Data set [4] deals with CLB-GE. As to the kind of experiment: Apoptosis analysis, cleaved PARP immunoblot. Format: cell-based. The conditions noted are these: 100 nM, 24 h.
For a further data set, the system named is CLB-BAR cells. As to the kind of experiment: Neuroblastoma xenograft mouse model with tumor immunohistochemistry. The class given is in vivo, BALB/cAnNRj-Foxn1nu mice. As to conditions: for CD31 (vascularization) in tumors / Ki-67 positivity in tumors, analysis by Ilastik / cleaved caspase positive apoptotic cells in tumors vs vehicle / phospho-histone H3 in tumors vs vehicle / Ki-67 manual analysis, lower median when compared to vehicle (95% CI): day 14; for CD31 (vascularization) in tumors / Ki-67 positivity in tumors, analysis by Ilastik / cleaved caspase positive apoptotic cells in tumors vs vehicle / phospho-histone H3 in tumors vs vehicle: alectinib 20 mg/kg, crizotinib 80 mg/kg once daily; for Ki-67 manual analysis, lower median when compared to vehicle (95% CI): counts normalized against vehicle, 4 independent investigators. As to the method:
Results for repotrectinib will be presented elsewhere. […] Tumor volume was measured by calipers every second day and calculated by the following equation: V = (π/6) × L × W^2 (V, volume; L, longest; W, width).
At the end of the experiment xenograft tumors (n = 5 for each tumor category) were harvested and fixed in 4% paraformaldehyde for 72 h. Following fixation, the tumors were imbedded in paraffin blocks and sectioned in […] slices with a manual microtome. Heat-induced epitope retrieval (HIER), using citrate buffer 0.01 M, pH 6, was performed before staining. HIER was achieved through a sequence where citrate buffer, containing the slides, was brought up to boiling, sub-boiled for 5 min following 10 s of intermediate cooling. The sequence was performed three times with cooling (5 min) in between. Following washing in distillated H2O (3 × 5 min), the slides were immerged in 3% H2O2 for 15 min and then washed in tris-buffered saline-Tween 20 (TBST) for 5 min. A hydrophobic pen was used to set a margin encircling the samples on the slides. […] The slides were incubated for 48 h in a cold room after being covered with antibody diluent. […] Additional washing steps in TBST (3 × 5 min) were carried out. […] The slides were counterstained with Mayer's hematoxylin solution (Sigma-Aldrich SLBK8961V), dehydrated and mounted.
Hamamatsu NanoZoomer-SQ Digital slide scanner (C13140-01) with a x20 (NA 0.75) objective was used to obtain digital images of the slides. Slides were randomly blinded to the investigator. For each of the blinded slides, a representative 1 mm^2 area was selected employing NanoZoomer Digital Pathology viewer. The slide-image was cropped, containing the area of interest, and saved, as a TIF-file at × 20 resolution. The saved TIF-files were cropped, using ImageJ (Fiji) ([44]), into merely encompassing the 1 mm^2 area of interest.
The 6–7 images were then uploaded into Ilastik ([45]), an interactive machine-learning toolkit, and used as a learning foundation for the software (see program code, Supplementary Data Sheet 3). Once the software analyzed the learning images, the whole batches were processed in Ilastik. The output was then transferred to ImageJ where a macro (see program code, Supplementary Data Sheet 2) calculated the area of staining. The pixel size acquired from NanoZoomer Digital Pathology viewer was accounted for in the macro. Ki-67 immunohistochemistry was also analyzed manually. […] Ninety five percent confidence intervals for the difference between median were retrieved with GraphPad.
GraphPad Prism 7.0 was used for statistical analysis. A non-parametric test was performed acquiring P-values by applying a Mann-Whitney test.

The subject of the next data set is SK-N-AS. As to the kind of experiment: Cell cycle analysis (DAPI, NucleoCounter NC-3000). The conditions noted are these: SK-N-AS control cell line, 24 h, 75 and 150 nM.
The subject of data set [5] is CLB-BAR. As to the kind of experiment: Apoptosis analysis, cleaved PARP immunoblot. The conditions noted are these: 100 nM, 24 h. Format: cell-based.

In the case of `CCc1cc2c(cc1N1CCC(N3CCOCC3)CC1)C(C)(C)c1[nH]c3cc(C#N)ccc3c1C2=O` [alectinib], the results for the “cell cycle progression, G1 accumulation” value in the data set with CLB-BAR [1], with CLB-GE [2] and in the data set with SK-N-AS were “increased G1 accumulation”, “increased G1 accumulation” and “not observed”, respectively. The “cleaved PARP levels” value in the data set on CLB-PE is given as “no difference was observed”; in the data set with IMR-32 it was “no difference was observed”; in [3] it was “no difference was observed”; with CLB-GE [4] it was “significant increase of cleaved PARP levels”; in the data set with CLB-BAR [5], “significant increase of cleaved PARP levels”. The “growth of neuroblastoma xenografts” value in the data set on CLB-BAR cells (20 mg/kg bodyweight once daily, 14 days, vs vehicle) is listed as “effectively abrogated growth”. In addition, the “body weight and side effects during treatment” value with CLB-BAR cells (20 mg/kg once daily, 14 days) was “No difference in body weight or obvious side effects”. Also, the “xenograft tumor volume compared with vehicle” value in the data set on CLB-BAR cells (20 mg/kg once daily, day 6 p = 0.0222, day 8 p < 0.0001, day 14 p = 0.0072) is on record as “significantly reduced”. In addition, the “tumor growth inhibition compared with crizotinib” value in the data set with CLB-BAR cells (alectinib 20 mg/kg vs crizotinib 80 mg/kg once daily, 14 days) is recorded as “more effective than with crizotinib”. For the same compound, the “CD31 (vascularization) in tumors” value in the data set with CLB-BAR cells is listed as “significant increase”. Further, the “Ki-67 positivity in tumors, analysis by Ilastik” value in the data set with CLB-BAR cells is reported as “non-significant decrease”. Also, the “cleaved caspase positive apoptotic cells in tumors vs vehicle” value in the data set with CLB-BAR cells was “significantly lower”. In addition, the “phospho-histone H3 in tumors vs vehicle” value in the data set on CLB-BAR cells is reported as “significant decrease”. Further, the “Ki-67 manual analysis, lower median when compared to vehicle (95% CI)” value in the data set with CLB-BAR cells is 0.46 (95% CI 0.32–0.52).
Turning to `C[C@@H](Oc1cc(-c2cnn(C3CCNCC3)c2)cnc1N)c1c(Cl)ccc(F)c1Cl` [crizotinib], in the data set with CLB-BAR cells, the “CD31 (vascularization) in tumors” value was “significant increase”; the “Ki-67 positivity in tumors, analysis by Ilastik” value is reported as “modest, but significant reduction”; the “cleaved caspase positive apoptotic cells in tumors vs vehicle” value is “non-significant decrease”; the “phospho-histone H3 in tumors vs vehicle” value is reported as “not observed”. The “Ki-67 manual analysis, lower median when compared to vehicle (95% CI)” value in the data set on CLB-BAR cells is reported as 0.49 (95% CI 0.47–0.50).

These data come from publication PMC6625372 (Frontiers in Oncology, 2019).
